Results: US8901089B2, “Composition comprising an amorphous non-crystalline glass form of roxithromycin” (North-West University, priority 2009, dated 2014)
Converted amounts (≈) assume the structure as drawn.

Tests used:
Assay type in all cases: physicochemical
[1] = Chemical stability by HPLC analysis; details: after solubility test
Experimental: (§1) The concentrations of the five filtrates of Form-II and roxithromycin raw material respectively are determined by HPLC (high performance liquid chromatography) assay. The HPLC assay is performed utilising a mobile phase of 30 g/L ammonium dihydrogen phosphate buffer at pH 5.3. The pH is adjusted with sodium hydroxide solution and 310 ml of the buffer solution is mixed with 690 ml acetonitrile. A Luna C18 150 mm×4.6 mm column is used with a flow rate of 1.0 ml/min and a wavelength of 205 nm. Validation of this method provides a linear regression r^2 of 0.9998.

[2] = Solubility of Form-II and roxithromycin raw material in three media, HPLC assay; details: for solubility at 24 h: 37 °C, thermodynamic from solid
Experimental: In further analysis of the novel Form-II, five test tubes with 100 mg of Form-II and 10 ml of one of the following solubility mediums respectively, namely, acetate buffer (pH 4.5), phosphate buffer (pH 6.8) and distilled water were filled.
The test tubes are then fixed to a rotating axis (54 rpm) and submerged in a water bath at 37 degrees Celsius±2 degrees Celsius for twenty-four hours. The contents of the test tubes are filtered through a 0.45 μm filter and subsequently the respective filtrates are diluted.
as §1

[3] = Exposure of Form-II to 50 degrees Celsius at zero and 75% relative humidity (microscopy); details: 18 days
Text: Form-II was further subjected to a temperature of 50 degrees Celsius at respectively zero (FIG. 3) and 75% relative humidity (FIG. 4) for 18 days.

[4] = Vapour sorption experiments (moisture isotherm)
Text: The sharp increase is attributed to the condensation of water on the sample holder.

solubility at 24 h ([2]; pH 4.5, aqueous buffer)	solubility at 24 h ([2]; pH 6.8, aqueous buffer)	solubility at 24 h ([2]; water)	solubility ([2]; pH 4.5, aqueous buffer)	solubility ([2]; pH 6.8, aqueous buffer)	solubility ([2]; water)	Compound	chemical stability (HPLC analysis) [1]	solubility ([2]; acetate buffer (pH 4.5), 37 degrees Celsius, twenty-four hours)	solubility ([2]; distilled water, 37 degrees Celsius, twenty-four hours)	more soluble than monohydrated roxithromycin (theoretical solubility of 1.8 μg/ml) ([2]; in water)	solubility ([2]; phosphate buffer (pH 6.8), 37 degrees Celsius, twenty-four hours)	crystallisation ([3]; 75% relative humidity)	crystallisation ([3]; zero relative humidity)	increase in weight (moisture isotherm) ([4]; from 70 to 90% RH, attributed to condensation of water on the sample holder)	weight loss upon decreasing the humidity ([4]; from 90 to 0% RH, returned to starting weight)	increase in weight (moisture isotherm) ([4]; relative humidity up to 60% RH)	solid state after high levels of moisture ([4]; vapour sorption up to 90% RH)
–	–	–	–	–	–	CC[C@H]1OC(=O)[C@H](C)[C@@H](O[C@H]2C[C@@](C)(OC)[C@@H](O)[C@H](C)O2)[C@H](C)[C@@H](O[C@@H]2O[C@H](C)C[C@H](N(C)C)[C@H]2O)[C@](C)(O)C[C@@H](C)C(=NOCOCCOC)[C@H](C)[C@@H](O)[C@]1(C)O [Form-II, 3R,4S,5S,6R,7R,9R,11S,12R,13S,14R-6-[(2S,3R,4S,6R)-4-dimethylamino-3-hydroxy-6-methyloxan-2-yl]oxy-14-ethyl-7,12,13-trihydroxy-4-[(2R,4R,5S,6S)-5-hydroxy-4-methoxy-4,6-dimethyloxan-2-yl]oxy-10-(2-methoxyethoxymethoxyimino)-3,5,7,9,11,13-hexamethyl-1-oxacyclotetradecan-2-one]	chemically stable	762.71 ± 2.6 µg/mL (≈ 911 µM)	32.86 ± 3.5 µg/mL (≈ 39.3 µM)	1798%	134.4 ± 4.9 µg/mL (≈ 161 µM)	no crystallisation	no crystallisation	up to 4%	4%	approximately 1.5%	remained amorphous
370 ± 8.3 µg/mL (≈ 442 µM)	74.8 ± 5.1 µg/mL (≈ 89.4 µM)	1.7 ± 0.6 µg/mL (≈ 2.03 µM)	370 µg/mL (≈ 442 µM)	74.8 µg/mL (≈ 89.4 µM)	1.8 µg/mL (≈ 2.15 µM)	CC[C@H]1OC(=O)[C@H](C)[C@@H](O[C@H]2C[C@@](C)(OC)[C@@H](O)[C@H](C)O2)[C@H](C)[C@@H](O[C@@H]2O[C@H](C)C[C@H](N(C)C)[C@H]2O)[C@](C)(O)C[C@@H](C)/C(=N\OCOCCOC)[C@H](C)[C@@H](O)[C@]1(C)O [roxithromycin raw material, roxithromycin]	–	–	–	–	–	–	–	–	–	–	–
